Biological target: T1, mGluR2 receptor (metabotropic glutamate receptor 2) (Homo sapiens, UniProt Q14416)
T1 construct: expressed in transfected cells
Test: mGluR2 Potentiator Screen, FLIPR, EC10-EC20 glutamate challenge
Assay type: cell-based
Details: read-out: EC50
Outline: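 HEK cells stably co-expressing mGluR2 and Gα15, kept glutamine-free overnight, were loaded with Fluo-4 plus probenecid and GPT/pyruvate. Compounds (top 10 μM) were added ≥30 min before an EC10–EC20 glutamate challenge. Peak FLIPR fluorescence ratios were curve-fitted, excluding points above maximal effect, with maxima from on-plate standards.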

T1 sequence (Q14416 19-872, species assumed): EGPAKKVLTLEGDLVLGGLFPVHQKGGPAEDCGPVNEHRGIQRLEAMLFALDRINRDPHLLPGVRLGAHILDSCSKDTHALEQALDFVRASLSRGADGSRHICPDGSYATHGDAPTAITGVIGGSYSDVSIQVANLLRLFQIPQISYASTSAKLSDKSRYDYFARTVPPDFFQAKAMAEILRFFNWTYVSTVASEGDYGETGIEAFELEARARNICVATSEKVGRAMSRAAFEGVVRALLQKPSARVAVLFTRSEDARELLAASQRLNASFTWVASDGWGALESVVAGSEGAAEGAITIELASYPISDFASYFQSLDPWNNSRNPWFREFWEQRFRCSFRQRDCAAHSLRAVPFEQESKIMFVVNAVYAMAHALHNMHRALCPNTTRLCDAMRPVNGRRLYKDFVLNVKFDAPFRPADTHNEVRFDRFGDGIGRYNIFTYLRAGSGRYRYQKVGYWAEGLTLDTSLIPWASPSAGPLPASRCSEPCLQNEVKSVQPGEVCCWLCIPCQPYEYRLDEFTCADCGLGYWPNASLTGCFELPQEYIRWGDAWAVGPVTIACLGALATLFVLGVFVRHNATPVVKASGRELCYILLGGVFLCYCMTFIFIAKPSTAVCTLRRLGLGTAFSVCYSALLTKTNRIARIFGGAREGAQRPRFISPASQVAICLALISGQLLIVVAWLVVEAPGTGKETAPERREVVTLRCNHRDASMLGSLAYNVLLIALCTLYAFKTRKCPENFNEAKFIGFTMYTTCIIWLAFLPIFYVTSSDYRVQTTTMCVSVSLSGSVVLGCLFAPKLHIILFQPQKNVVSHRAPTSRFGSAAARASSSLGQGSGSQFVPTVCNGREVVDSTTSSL

Compound	EC50 [nM]
Cn1c(CN2CCC(c3ccccc3F)CC2)nc2c(C#N)cccc21 [compound 268]	1710
COc1ccccc1C1CCN(Cc2nc3c(Cl)cccc3n2C)CC1 [compound 270]	838
COc1ccccc1C1CCN(Cc2nc3cc(N)ccc3n2C)CC1 [compound 281]	1510
COCn1c(CN2CCC(c3ccccc3F)CC2)nc2ccccc21 [compound 286]	4620
COCn1c(CN2CCC(c3ccc(C(F)(F)F)cc3)CC2)nc2ccccc21 [compound 287]	1900
Cn1c(CN2CCC(c3ccccc3)CCC2=O)nc2ccccc21 (stereo not shown) [compound 289]	> 9880
Cn1c(CN2CCC(c3ccc(C(F)(F)F)cc3)CCC2=O)nc2ccccc21 (stereo not shown) [compound 290]	5720
COc1ccccc1C1CCN(Cc2nc3cc(F)c(F)cc3n2C)CC1C (stereo not shown) [compound 293]	850
COc1ccccc1C1CCN(Cc2nc3ccccc3n2CF)CC1C (stereo not shown) [compound 294]	734
OCCn1c(CN2CCC(c3ccccc3F)CC2)nc2ccccc21 [compound 295]	1740
Cn1c(CN2CC[C@@H]3c4c(Br)ccc(Cl)c4CC[C@H]3C2)nc2ccccc21 [compound 299]	6120
Cn1c(CN2CCCC(c3ccc(C(F)(F)F)cc3)CC2)nc2ccccc21 (stereo not shown) [compound 303]	868
Cn1c(CN2CCCC(c3ccccc3F)CC2)nc2ccccc21 (stereo not shown) [compound 306]	1590
COc1ccc(C(F)(F)F)cc1C1CCN(Cc2nc3ccccc3n2C2CC2)CC1 [compound 318]	4690
COc1ccc(C(F)(F)F)cc1C1CCN(Cc2nc3ccccc3n2CCF)CC1 [compound 319]	1650
COCn1c(CN2CCC(c3cc(C(F)(F)F)ccc3OC)CC2)nc2ccccc21 [compound 320]	3800
COc1ccc(C(F)(F)F)cc1C1CCN(Cc2nc3cc(F)c(F)cc3n2C)CC1 [compound 321]	1510
COc1ccccc1[C@]1(C)CCN(Cc2nc3ccccc3n2C2CC2)C[C@@H]1C [compound 322]	9930
COCCn1c(CN2CCC(c3cc(C(F)(F)F)ccc3OC)CC2)nc2ccccc21 [compound 323]	984
Fc1ccc(C(F)(F)F)cc1C1CCN(Cc2nc3ccccc3n2C2CC2)CC1 [compound 327]	1980
FCCn1c(CN2CCC(c3cc(C(F)(F)F)ccc3F)CC2)nc2ccccc21 [compound 329]	463
COCn1c(CN2CCC(c3cc(C(F)(F)F)ccc3F)CC2)nc2ccccc21 [compound 330]	969

Compound	EC50 [nM]
COc1ccccc1C1(OC)CCN(Cc2nc3ccccc3n2C)CC1C (stereo not shown) [compound 332]	5220
COc1ccccc1C1(OC)CCN(Cc2nc3c(Br)cccc3n2C)CC1C (stereo not shown) [compound 333]	4760
COc1ccccc1C1(OC)CCN(Cc2nc3ccccc3n2CF)CC1C (stereo not shown) [compound 334]	> 7080
COc1ccccc1C1(OC)CCN(Cc2nc3ccccc3n2CCF)CC1C (stereo not shown) [compound 335]	10400
Cn1c(CN2CCC(c3ccc(C(F)(F)F)cc3)CC2)nc2cccc(F)c21 [compound 341]	633
Cn1c(CN2CCC(c3ccc(C(F)(F)F)cc3)CC2)nc2cc(Cl)ccc21 [compound 345]	1600
COc1cc(C(F)(F)F)ccc1C1CCN(Cc2nc3ccccc3n2C)CC1 [compound 355]	66.7
COc1cc(C(F)(F)F)ccc1C1CCN(Cc2nc3c(Br)cccc3n2C)CC1 [compound 356]	3900
COCn1c(CN2CCC(c3ccc(C(F)(F)F)cc3OC)CC2)nc2ccccc21 [compound 358]	471
COc1cc(C(F)(F)F)ccc1C1CCN(Cc2nc3ccccc3n2C2CC2)CC1 [compound 359]	940
Cn1c(CN2CCC(c3ccc(C(F)(F)F)cc3)CC2)nc2cc(C(F)(F)F)ccc21 [compound 362]	5010
Cn1c(CN2CCC(c3ccc(C(F)(F)F)cc3)CC2)nc2cc(C(N)=O)ccc21 [compound 364]	498
COCn1c(CN2CCC(c3ccc(F)cc3)CC2)nc2ccccc21 [compound 365]	1670
Cn1c(CN2CCC(c3ccc(F)cc3)CC2)nc2c(Br)cccc21 [compound 366]	2140
COCCn1c(CN2CCC(c3ccc(F)cc3)CC2)nc2ccccc21 [compound 367]	905
Cn1c(CN2CCC(c3ccc(F)cc3)CC2)nc2cc(F)c(F)cc21 [compound 368]	475
Fc1ccc(C2CCN(Cc3nc4ccccc4n3C3CC3)CC2)cc1 [compound 369]	1770
FCCn1c(CN2CCC(c3ccc(F)cc3)CC2)nc2ccccc21 [compound 370]	582
CC(C)Oc1ccccc1C1CCN(Cc2nc3cc(F)ccc3n2C)CC1 [compound 371]	692
Cn1c(CN2CCC(c3ccccc3C(F)(F)F)CC2)nc2cc(Cl)ccc21 [compound 373]	1750
COc1ccc(C(F)(F)F)cc1C1CCN(Cc2nc3cc(F)ccc3n2C)CC1 [compound 377]	853

More lines, now with the values ahead:

EC50 [nM]	Compound
445	Cn1c(CN2CCC(c3ccccc3F)CC2)nc2cc(Br)ccc21 [compound 269]
21.1	COc1ccccc1C1CCN(Cc2nc3c(F)cccc3n2C)CC1 [compound 271]
79.7	Cc1ccc2c(c1)nc(CN1CCC(c3ccccc3F)CC1)n2C [compound 273]
318	Cn1c(CN2CCC(c3ccccc3F)CC2)nc2ccc(Br)cc21 [compound 274]
44.6	COc1ccc(-c2ccc3nc(CN4CCC(c5ccccc5F)CC4)n(C)c3c2)cn1 [compound 277]
176	Cn1c(CN2CCC(c3ccccc3F)CC2)nc2cc(-c3ccccc3)ccc21 [compound 280]
41.6	COc1ccccc1C1CCN(Cc2nc3cc(C)ccc3n2C)CC1 [compound 282]
90.8	COc1ccccc1C1CCN(Cc2nc3cc(C#N)ccc3n2C)CC1 [compound 283]
39.4	COc1ccccc1C1CCN(Cc2nc3cc(F)ccc3n2C)CC1 [compound 284]
49.3	COc1ccccc1C1CCN(Cc2nc3cc(Cl)ccc3n2C)CC1 [compound 285]
143	COc1ccccc1C1CCN(Cc2nc3ccccc3n2C)CC1C (stereo not shown) [compound 292]
60.7	COc1ccc(F)cc1C1CCN(Cc2nc3ccccc3n2C)CC1 [compound 300]
42.3	Cc1cccc2nc(CN3CCC(c4ccccc4F)CC3)n(C)c12 [compound 301]
37.4	Cc1cc(C)cc(C2CCN(Cc3nc4ccccc4n3C)CC2)c1 [compound 302]
276	COc1ccccc1C1CCCN(Cc2nc3ccccc3n2C)CC1 (stereo not shown) [compound 304]
235	Cn1c(CN2CCCC(c3ccccc3)CC2)nc2ccccc21 (stereo not shown) [compound 305]
31.4	Cn1c(CN2CCC(c3ccccc3F)CC2)nc2cccc(C#N)c21 [compound 307]
151	Cn1c(CN2CCC(c3ccccc3F)CC2)nc2cccc(-c3ccccc3)c21 [compound 308]
112	COc1ccc(-c2cccc3nc(CN4CCC(c5ccccc5F)CC4)n(C)c23)cn1 [compound 309]
43.3	Cc1cc(F)ccc1C1CCN(Cc2nc3ccccc3n2C)CC1 [compound 310]
16.1	Cn1c(CN2CCC(c3cc(F)ccc3F)CC2)nc2ccccc21 [compound 311]
60.1	Cn1c(CN2CCC(c3ccccc3F)CC2)nc2cccc(Br)c21 [compound 312]
361	CC(O)c1ccccc1C1CCN(Cc2nc3ccccc3n2C)CC1 (stereo not shown) [compound 313]

EC50 [nM]	Compound
43.8	Cn1c(CN2CCC(c3ccc(C(F)(F)F)cc3)CC2)nc2c(F)cccc21 [compound 314]
308	Cc1ccc(C2CCN(Cc3nc4ccccc4n3C)CC2)cc1C [compound 315]
90.7	Cn1c(CN2CCC(c3ccc(C(F)(F)F)cc3)CC2)nc2cc(C#N)ccc21 [compound 317]
263	COCCn1c(CN2CCC(c3cc(C(F)(F)F)ccc3F)CC2)nc2ccccc21 [compound 326]
463	Cn1c(CN2CCC(c3cc(C(F)(F)F)ccc3F)CC2)nc2cc(F)c(F)cc21 [compound 328]
299	Cn1c(CN2CCC(c3ccc(F)cc3)CC2)nc2cc(C#N)ccc21 [compound 331]
200	Cn1c(CN2CCC(c3ccc(OC(F)(F)F)cc3)CC2)nc2ccccc21 [compound 340]
55.2	Cn1c(CN2CCC(c3ccc(F)cc3)CC2)nc2cccc(F)c21 [compound 342]
16.6	COc1ccccc1C1CCN(Cc2nc3cccc(F)c3n2C)CC1 [compound 343]
20.6	Cn1c(CN2CCC(c3ccccc3F)CC2)nc2cccc(F)c21 [compound 344]
201	Cn1c(CN2CCC(c3cc(C(F)(F)F)cc(C(F)(F)F)c3)CC2)nc2ccccc21 [compound 348]
34.9	COc1cc(C(F)(F)F)ccc1C1CCN(Cc2nc3cc(F)ccc3n2C)CC1 [compound 349]
147	Cn1c(CN2CCC(c3ccc(C(F)(F)F)cc3)CC2)nc2cc(F)ccc21 [compound 350]
87.7	Cn1c(CN2CCC(c3ccccc3F)CC2)nc2cc(F)ccc21 [compound 351]
88.5	Cn1c(CN2CCC(c3ccccc3F)CC2)nc2cc(F)ccc21 [compound 352]
< 40.2	Cn1c(CN2CCC(c3ccc(C(F)(F)F)cc3F)CC2)nc2cc(F)ccc21 [compound 353]
105	COc1cc(C(F)(F)F)ccc1C1CCN(Cc2nc3ccccc3n2CCF)CC1 [compound 357]
266	COc1cc(C(F)(F)F)ccc1C1CCN(Cc2nc3cc(F)c(F)cc3n2C)CC1 [compound 360]
308	Cn1c(CN2CCC(c3cc(Cl)ccc3F)CC2)nc2cc(F)ccc21 [compound 372]
245	Cn1c(CN2CCC(c3cccc(C(F)(F)F)c3)CC2)nc2cc(F)ccc21 [compound 374]
348	Cn1c(CN2CCC(c3cc(C(F)(F)F)ccc3F)CC2)nc2cc(F)ccc21 [compound 375]
299	Cn1c(CN2CCC(c3cc(F)cc(F)c3)CC2)nc2cc(F)ccc21 [compound 376]
